Reference: patent publication US20160361398A1, “METHOD FOR THE TREATMENT OF MULTIPLE SCLEROSIS” (Vereniging voor Christelijk Wetenschappe Onderwijs, priority 2015, published 2016)
No end group written: not given here.

Assays:
[1] = tested on: naive OVA-specific CD4+ T cells (OT-II); assay: Antigen specificity: loaded DCs challenged with OVA, co-cultured with OT-II cells, Foxp3+ CD4+ by flow cytometry; format: cell-based, mouse; conditions: for tolerogenic cells (Foxp3+ CD4+ T cells) in a population of OT-II cells: loaded DCs subsequently challenged with OVA
Method: (§1) For that purpose, dendritic cells were loaded with sia-OVA and subsequently challenged in the presence of specific CD4+ T cells with either OVA or with a myelin oligodendrocyte glycoprotein peptide (MOG 35-55).
(§2) The thus-loaded dendritic cells were then co-cultured with naive MOG-specific CD4+ T cells (called 2D2) in the presence of MOG 35-55 or with naive OVA-specific CD4+ T cells (called OT-II) in the presence of ovalbumin (OVA).
(§3) Subsequently, it was determined whether sia-OVA-loaded dendritic cells were able to induce tolerogenic T cells in an antigen-specific manner. This was done by determining the percentage of Foxp3+ CD4+ T cells by flow cytometry.

[2] = tested on: MOG-responsive CD4+ T cells (2D2 T cells); assay: T helper differentiation: antigen-pulsed DCs co-cultured with naive 2D2 CD4+ T cells, intracellular staining for Foxp3 and IFN-γ; format: cell-based, mouse; conditions: cultured six days with 2D2 T cells; for induction of suppressive Foxp3+CD4+ T cells: FIG. 1A; for CD4+ IFN-γ+ MOG effector T cells: FIG. 1B
Text: For that purpose, DC were pulsed with α-2-6-Sia-MOG35-55 and a non-sialylated MOG 35-55 peptide as a control, and cultured for six days with MOG-responsive CD4^+ T cells (2D2 T cells (Bettelli et al., J. Exp. Med., 2003).
(§4) Antigen-specific nave CD4+CD62LhiCD25− T cells were purified from spleen and LN cell suspensions obtained from 2D2 mice using the Dynal mouse CD4+ CD62L+ T cell isolation kit II mouse (Miltenyi Biotec, Bergisch Gladbach, Germany) or by sorting on a MoFlo (DakoCytomation, Glostrup, Denmark). The resulting naïve CD4+ CD62L+CD25− T cell populations were typically 95% pure as assessed by flow cytometry. Naïve CD4+ T cells (5×10^4) were added to wells containing DCs (1×10^4) that were pulsed with indicated concentrations of antigen modified with a sialylated oligosaccharide or native antigen 3 hours prior. After 2 days, 10 U/ml recombinant mouse IL-2 (Invitrogen, Bleijswijk, The Netherlands) was added. T-cell polarization was evaluated on day 6 by intra-cellular staining for Foxp3 and IFN-γ following 5 hours restimulation with phorbol 12-myristate 13-acetate (PMA; […])/ionomycin (Sigma; 500 ng/ml) in the presence of Brefeldin A (Sigma; 5 μg/ml). For inhibition of effector Th1 and Th17 cells, Naïve 2D2 T cells were converted in Th1 or Th17 cells by culturing; one week later, effector T cells re-stimulated with DC pulsed with MOG or Sialylated MOG. After 24 hours, the supernatant was harvested for presence of IFN-γ or IL 17 as measure of activity of Th1 and Th17 effector cells, respectively.

[3] = tested on: MOG-specific CD4+ (2D2) T-cells; assay: IFN-γ in culture supernatants of DC / 2D2 T-cell co-cultures; format: cell-based, mouse; conditions: 2D2 T cells primed by antigen-loaded DCs; FIG. 1C
Method: as §4, with “For inhibition of effector Th1 and Th17 cells, Naïve 2D2 T cells were converted in Th1 or Th17 cells by culturing; one week later, effector T cells re-stimulated with DC pulsed with MOG or Sialylated MOG. After 24 hours, the supernatant was harvested for presence of IFN-γ or IL 17 as measure of activity of Th1 and Th17 effector cells, respectively.” left out
(§5) Cytokine production by T cells and DCs was assessed by cytometric bead arrays using the CBA Th1/2/17 kit and mouse inflammation kit, respectively (BD Biosciences), or by ELISA using specific antibody pairs (eBiosciences) following the manufacturers' instructions.

[4] = tested on: MOG-specific CD4+ T cells; assay: qRT-PCR of MOG-specific CD4+ T cells isolated on day 6 of co-culture with pulsed DCs; format: cell-based, mouse; conditions: for Foxp3 mRNA level (qRT-PCR, normalized to GAPDH): FIG. 1D right panel
Method: FIG. 1D: (Left panel) Expression of T-bet, which is a measure for IFN-γ-producing effector CD4 T cells (Th1). (Right panel) Foxp3 mRNA, which is a measure for Treg cells that suppress, were determined using qRT-PCR and subsequently normalized to housekeeping gene GAPDH, which is equal under all conditions.

[5] = tested on: Th1 and Th17 cells generated from 2D2 CD4 T cells; assay: Inhibition of effector Th1 and Th17 cells generated from 2D2 T cells, re-stimulated with pulsed DCs; format: cell-based, mouse; conditions: supernatant after 24 hours; for secretion of effector cytokine by Th1 cells (IFN-gamma): FIG. 1E left panel; for secretion of effector cytokine by Th17 cells (IL-17): FIG. 1E right panel
Text: As stated hereinbefore, Th1 and Th17 are the effector CD4T cells that cause inflammation in MS. […] This was not observed when these effector cells were co-cultured with DCs loaded with non-sialylated MOG 35-55 (FIG. 1E). Thus, it was concluded that T cells generated in the presence of DCs exposed to α-2,6-Sia-MOG35-55, indeed were functional in that they were able to suppress MOG-specific effector T cells and, therefore, able to dampen ongoing inflammation. It follows that the disclosure may be applied for treating ongoing inflammation, such as the inflammation observed in MS patients, when, at the peak of the disease, auto-reactive, myelin-specific CD4^+ and CD8^+ T cells are involved in the demyelination of the neurons.
as §4

[6] = tested on: MOG-specific effector CD4 T cells from EAE splenocytes; assay: EAE splenocytes re-stimulated ex vivo with antigen-loaded DCs: [3H]thymidine incorporation; format: cell-based, mouse; conditions: after 4 days of culture; EAE scores 1, 2 and 3; FIG. 1F
Method: To examine this even further, testing was performed to determine whether DCs exposed to α-2,6-Sia-MOG35-55 were able to inhibit MOG-specific effector T cells that were obtained from splenocytes from mice suffering from experimental autoimmune encephalomyelitis (EAE). To this effect, CD4 effector T cells were harvested from splenocytes of mice at various EAE clinical scores, representing different stages of effector T cell number and activity, wherein score 1 is the onset of disease and score 2 and 3 are the more severe phases of the disease.
Testing was performed to determine whether DCs ex vivo loaded with Sia-MOG could inhibit the proliferation of the MOG-specific effector CD4 T cells that were obtained from EAE mice.
DCs loaded with α-2-6-Sia-MOG35-55 or non-sialylated MOG35-55 were cultured with EAE splenocytes and, after 4 days of culture, [3H]thymidine incorporation was determined as a measure of proliferation and division of CD4 T cells (FIG. 1 F).
(§6) Splenocytes from mice that suffered EAE were re-stimulated ex-vivo with DCs loaded with either non-sialylated MOG or α-2-6-Sia-MOG35-55 and as a control, DC with no antigen. DC and T cells were cultured as described in Example 2, as described above, for 4 days. 3H and IFN-γ was determined as described above.

[7] = tested on: MOG-reactive effector T cells from EAE mice; assay: EAE splenocytes re-stimulated ex vivo with antigen-loaded DCs: IFN-γ production; format: cell-based, mouse; conditions: 4 days of culture; EAE mice with different scoring; FIG. 1G
Method: To determine the functionality of the MOG-reactive effector cells, IFN-γ production was measured (FIG. 1G).
as §6, §5

[8] = tested on: experimental autoimmune encephalomyelitis; conditions: intravenous administration; cited from earlier work
[9] = tested on: naive MOG-specific CD4+ T cells (2D2); assay: Antigen specificity: sia-OVA-loaded DCs challenged with MOG 35-55, co-cultured with 2D2 cells, Foxp3+ CD4+ by flow cytometry; format: cell-based, mouse; conditions: loaded DCs subsequently challenged with MOG 35-55
Method: as §1, §2, §3

| Substance | tolerogenic cells (Foxp3+ CD4+ T cells) in a population of OT-II cells [1] | induction of suppressive Foxp3+CD4+ T cells [2] | CD4+ IFN-γ+ MOG effector T cells [2] | secreted IFN-γ in culture supernatants [3] | Foxp3 mRNA level (qRT-PCR, normalized to GAPDH) [4] | secretion of effector cytokine by Th1 cells (IFN-gamma) [5] | secretion of effector cytokine by Th17 cells (IL-17) [5] | proliferation of MOG-specific CD4 T cells ([3H]thymidine incorporation) [6] | IFN-γ production of MOG-reactive effector cells [7] | also measured |
| --- | --- | --- | --- | --- | --- | --- | --- | --- | --- | --- |
| OVA: ovalbumin, control antigen [reference compound] | did not induce tolerogenic cells above background levels |  |  |  |  |  |  |  |  |  |
| α-2-6-Sia-OVA: OVA coupled to 6′-Sialyl-N-acetyllactosamine (6′-SLN) |  |  |  |  |  |  |  |  |  | immune tolerance against OVA ([1]; DCs exposed to the antigen): capable of inducing immune tolerance against OVA |
| MEVGWYRPPFSRVVHLYRNGK [non-sialylated MOG35-55, reference compound] |  | not induced | 3.5% | significant amounts | hardly expressed | not observed | not observed | stimulate the proliferation | enhance | T-bet mRNA level (qRT-PCR, normalized to GAPDH) ([4]; FIG. 1D left panel): higher mRNA levels; effect on experimental autoimmune encephalomyelitis [8]: suppresses |
| sia-OVA: sia-2,3 and 2,6-conjugated ovalbumin | about 10% |  |  |  |  |  |  |  |  | tolerogenic cells (Foxp3+ CD4+ T cells) in a population of 2D2 cells [9]: did not induce tolerogenic cells above background levels |
| α-2-6-Sia-MOG35-55: MOG 35-55 peptide with N-terminal cysteine covalently attached via MPBH linker to 6′-sialyl-N-acetyllactosamine (Neu5Ac(α)2-6Gal(β)1-4GlcNAc) (GPGYPIRALVGDEAELPCRIS; not fully specified (N-terminus); also: N-terminal Cys linked via MPBH to 6'-sialyl-LacNAc (Neu5Ac(α)2-6Gal(β)1-4GlcNAc); UniProt Q61885 35-55, looked up, fragment) |  | majority of the CD4 T cells co-express Foxp3 | 0.3% | reduction | high levels | significantly reduced | significantly reduced | clear reduction of proliferation | suppressed |  |
